Source: the NIST ThermoML archive (doi:10.1021/je060271a)
Numbers after ± are expanded uncertainties.

Conditions: 283.14 K, Liquid, Vibrating tube method

CCCCCCC(=O)OCC(COC(=O)CCCCCC)(COC(=O)CCCCCC)COC(=O)CCCCCC [pentaerythritol tetraheptanoate]
Conditions | mass density [kg/m3]
13797 kPa | 993.7 ± 1.2
13815 kPa | 993.7 ± 1.2
13832 kPa | 993.7 ± 1.2
13850 kPa | 993.7 ± 1.2
13872 kPa | 993.7 ± 1.2
13889 kPa | 993.7 ± 1.2
13907 kPa | 993.7 ± 1.2
13928 kPa | 993.7 ± 1.2
13946 kPa | 993.7 ± 1.2
13964 kPa | 993.7 ± 1.2
13985 kPa | 993.7 ± 1.2
14003 kPa | 993.7 ± 1.2
14021 kPa | 993.7 ± 1.2
14043 kPa | 993.7 ± 1.2
14061 kPa | 993.8 ± 1.2
14079 kPa | 993.9 ± 1.2
14098 kPa | 993.8 ± 1.2
14120 kPa | 993.8 ± 1.2
14138 kPa | 993.9 ± 1.2
14160 kPa | 993.9 ± 1.2
14178 kPa | 993.9 ± 1.2
14197 kPa | 993.9 ± 1.2
14216 kPa | 993.8 ± 1.2
14238 kPa | 993.9 ± 1.2
14256 kPa | 993.9 ± 1.2
14278 kPa | 993.9 ± 1.2
14297 kPa | 993.9 ± 1.2
14316 kPa | 993.9 ± 1.2
14339 kPa | 994 ± 1.2
14358 kPa | 994 ± 1.2
14377 kPa | 993.9 ± 1.2
14396 kPa | 993.9 ± 1.2
14419 kPa | 993.9 ± 1.2
14438 kPa | 994 ± 1.2
14458 kPa | 994 ± 1.2
14480 kPa | 994 ± 1.2
14500 kPa | 994 ± 1.2
14523 kPa | 994 ± 1.2
14542 kPa | 994.1 ± 1.2
14561 kPa | 994 ± 1.2
14585 kPa | 994.1 ± 1.2
14605 kPa | 994.1 ± 1.2
14625 kPa | 994.1 ± 1.2
14645 kPa | 994 ± 1.2
14668 kPa | 994.1 ± 1.2
14688 kPa | 994.1 ± 1.2
14708 kPa | 994.1 ± 1.2
14733 kPa | 994.2 ± 1.2
14752 kPa | 994.2 ± 1.2
14772 kPa | 994.3 ± 1.2
14797 kPa | 994 ± 1.2
14817 kPa | 994.3 ± 1.2
14838 kPa | 994.2 ± 1.2
14863 kPa | 994.2 ± 1.2
14884 kPa | 994.2 ± 1.2
14905 kPa | 994.2 ± 1.2
14926 kPa | 994.3 ± 1.2
14946 kPa | 994.2 ± 1.2
14971 kPa | 994.3 ± 1.2
14991 kPa | 994.2 ± 1.2
15016 kPa | 994.3 ± 1.2
15037 kPa | 994.2 ± 1.2
15057 kPa | 994.4 ± 1.2
15083 kPa | 994.4 ± 1.2
15104 kPa | 994.4 ± 1.2
15125 kPa | 994.4 ± 1.2
15151 kPa | 994.5 ± 1.2
15173 kPa | 994.4 ± 1.2
15194 kPa | 994.3 ± 1.2
15216 kPa | 994.4 ± 1.2
15242 kPa | 994.5 ± 1.2
15263 kPa | 994.4 ± 1.2
15285 kPa | 994.5 ± 1.2
15310 kPa | 994.4 ± 1.2
15332 kPa | 994.4 ± 1.2
15354 kPa | 994.5 ± 1.2
15567 kPa | 994.5 ± 1.2
15589 kPa | 994.5 ± 1.2
15616 kPa | 994.6 ± 1.2
15638 kPa | 994.6 ± 1.2
15661 kPa | 994.7 ± 1.2
15689 kPa | 994.7 ± 1.2
15711 kPa | 994.7 ± 1.2
15734 kPa | 994.7 ± 1.2
15762 kPa | 994.7 ± 1.2
15785 kPa | 994.6 ± 1.2
15808 kPa | 994.8 ± 1.2
15836 kPa | 994.7 ± 1.2
15860 kPa | 994.8 ± 1.2
15883 kPa | 994.8 ± 1.2
15911 kPa | 994.9 ± 1.2
15934 kPa | 994.7 ± 1.2
15958 kPa | 994.8 ± 1.2
15982 kPa | 994.8 ± 1.2
16010 kPa | 994.9 ± 1.2
16034 kPa | 994.8 ± 1.2
16062 kPa | 995 ± 1.2
16087 kPa | 995 ± 1.2
16111 kPa | 994.9 ± 1.2
16139 kPa | 994.9 ± 1.2
16164 kPa | 994.9 ± 1.2
16188 kPa | 994.8 ± 1.2
16212 kPa | 994.9 ± 1.2
16242 kPa | 994.9 ± 1.2
16266 kPa | 995.1 ± 1.2
16291 kPa | 994.9 ± 1.2
16321 kPa | 994.9 ± 1.2
16345 kPa | 995 ± 1.2
16375 kPa | 995 ± 1.2
16400 kPa | 995 ± 1.2
16425 kPa | 995.1 ± 1.2
16450 kPa | 995.1 ± 1.2
16481 kPa | 995 ± 1.2
16506 kPa | 995.1 ± 1.2
16531 kPa | 995.1 ± 1.2
16587 kPa | 995.1 ± 1.2
16617 kPa | 995.2 ± 1.2
16669 kPa | 995.1 ± 1.2
16725 kPa | 995.2 ± 1.2
16752 kPa | 995.2 ± 1.2
16779 kPa | 995.3 ± 1.2
16810 kPa | 995.3 ± 1.2
16836 kPa | 995.2 ± 1.2
16868 kPa | 995.2 ± 1.2
16894 kPa | 995.4 ± 1.2
16921 kPa | 995.3 ± 1.2
16953 kPa | 995.3 ± 1.2
16980 kPa | 995.4 ± 1.2
17007 kPa | 995.4 ± 1.2
17035 kPa | 995.4 ± 1.2
17068 kPa | 995.4 ± 1.2
17095 kPa | 995.5 ± 1.2
17124 kPa | 995.4 ± 1.2
17152 kPa | 995.4 ± 1.2
17180 kPa | 995.5 ± 1.2
17214 kPa | 995.3 ± 1.2
17241 kPa | 995.5 ± 1.2
17269 kPa | 995.5 ± 1.2
17363 kPa | 995.5 ± 1.2
17449 kPa | 995.6 ± 1.2
17484 kPa | 995.7 ± 1.2
17513 kPa | 995.5 ± 1.2
17543 kPa | 995.7 ± 1.2
17572 kPa | 995.6 ± 1.2
17607 kPa | 995.7 ± 1.2
17636 kPa | 995.8 ± 1.2
17666 kPa | 995.6 ± 1.2
17700 kPa | 995.7 ± 1.2
17729 kPa | 995.8 ± 1.2
17759 kPa | 995.8 ± 1.2
17794 kPa | 995.8 ± 1.2
17824 kPa | 995.7 ± 1.2
17854 kPa | 995.8 ± 1.2
17890 kPa | 995.9 ± 1.2
17920 kPa | 995.8 ± 1.2
17950 kPa | 995.9 ± 1.2
17986 kPa | 995.8 ± 1.2
18017 kPa | 995.9 ± 1.2
18048 kPa | 996 ± 1.2
18085 kPa | 995.9 ± 1.2
18116 kPa | 995.9 ± 1.2
18147 kPa | 995.9 ± 1.2
18184 kPa | 995.9 ± 1.2
18215 kPa | 996 ± 1.2
18247 kPa | 996 ± 1.2
18278 kPa | 996 ± 1.2
18316 kPa | 995.9 ± 1.2
18348 kPa | 996 ± 1.2
18380 kPa | 996.1 ± 1.2
18419 kPa | 996.1 ± 1.2
18450 kPa | 996.2 ± 1.2
18489 kPa | 996.2 ± 1.2
18522 kPa | 996.1 ± 1.2
18554 kPa | 996.1 ± 1.2
18586 kPa | 996.1 ± 1.2
18625 kPa | 996.3 ± 1.2
18658 kPa | 996.3 ± 1.2
18697 kPa | 996.3 ± 1.2
18731 kPa | 996.2 ± 1.2
18764 kPa | 996.3 ± 1.2
18805 kPa | 996.3 ± 1.2
18839 kPa | 996.3 ± 1.2
18873 kPa | 996.3 ± 1.2
18908 kPa | 996.4 ± 1.2
18950 kPa | 996.4 ± 1.2
18986 kPa | 996.4 ± 1.2
19030 kPa | 996.4 ± 1.2
19067 kPa | 996.3 ± 1.2
19105 kPa | 996.5 ± 1.2
19144 kPa | 996.5 ± 1.2
19165 kPa | 996.5 ± 1.2
19176 kPa | 996.5 ± 1.2
19199 kPa | 996.5 ± 1.2
19220 kPa | 996.4 ± 1.2
19241 kPa | 996.6 ± 1.2
19262 kPa | 996.5 ± 1.2
19288 kPa | 996.7 ± 1.2
19308 kPa | 996.5 ± 1.2
19333 kPa | 996.6 ± 1.2
19354 kPa | 996.5 ± 1.2
19376 kPa | 996.7 ± 1.2
19396 kPa | 996.7 ± 1.2
19422 kPa | 996.6 ± 1.2
19443 kPa | 996.8 ± 1.2
19465 kPa | 996.7 ± 1.2
19491 kPa | 996.7 ± 1.2
19512 kPa | 996.7 ± 1.2
19538 kPa | 996.8 ± 1.2
19560 kPa | 996.7 ± 1.2
19582 kPa | 996.6 ± 1.2
19604 kPa | 996.8 ± 1.2
19630 kPa | 996.7 ± 1.2
19652 kPa | 996.7 ± 1.2
19675 kPa | 996.7 ± 1.2
19697 kPa | 996.7 ± 1.2
19746 kPa | 996.8 ± 1.2
19769 kPa | 996.8 ± 1.2
19796 kPa | 996.9 ± 1.2
19818 kPa | 996.8 ± 1.2
19841 kPa | 996.8 ± 1.2
19863 kPa | 996.9 ± 1.2
19890 kPa | 996.9 ± 1.2
19912 kPa | 996.9 ± 1.2
